This note sets out measurements from ChEMBL document CHEMBL4152198, “The development of Bruton's tyrosine kinase (BTK) inhibitors from 2012 to 2017: A mini-review” (Eur J Med Chem, 2018).

Each structure is given as a SMILES string.

The target in test [1] is T1, Tyrosine-protein kinase JAK3 (Homo sapiens, UniProt P52333).
T1 sequence (P52333 whole entry): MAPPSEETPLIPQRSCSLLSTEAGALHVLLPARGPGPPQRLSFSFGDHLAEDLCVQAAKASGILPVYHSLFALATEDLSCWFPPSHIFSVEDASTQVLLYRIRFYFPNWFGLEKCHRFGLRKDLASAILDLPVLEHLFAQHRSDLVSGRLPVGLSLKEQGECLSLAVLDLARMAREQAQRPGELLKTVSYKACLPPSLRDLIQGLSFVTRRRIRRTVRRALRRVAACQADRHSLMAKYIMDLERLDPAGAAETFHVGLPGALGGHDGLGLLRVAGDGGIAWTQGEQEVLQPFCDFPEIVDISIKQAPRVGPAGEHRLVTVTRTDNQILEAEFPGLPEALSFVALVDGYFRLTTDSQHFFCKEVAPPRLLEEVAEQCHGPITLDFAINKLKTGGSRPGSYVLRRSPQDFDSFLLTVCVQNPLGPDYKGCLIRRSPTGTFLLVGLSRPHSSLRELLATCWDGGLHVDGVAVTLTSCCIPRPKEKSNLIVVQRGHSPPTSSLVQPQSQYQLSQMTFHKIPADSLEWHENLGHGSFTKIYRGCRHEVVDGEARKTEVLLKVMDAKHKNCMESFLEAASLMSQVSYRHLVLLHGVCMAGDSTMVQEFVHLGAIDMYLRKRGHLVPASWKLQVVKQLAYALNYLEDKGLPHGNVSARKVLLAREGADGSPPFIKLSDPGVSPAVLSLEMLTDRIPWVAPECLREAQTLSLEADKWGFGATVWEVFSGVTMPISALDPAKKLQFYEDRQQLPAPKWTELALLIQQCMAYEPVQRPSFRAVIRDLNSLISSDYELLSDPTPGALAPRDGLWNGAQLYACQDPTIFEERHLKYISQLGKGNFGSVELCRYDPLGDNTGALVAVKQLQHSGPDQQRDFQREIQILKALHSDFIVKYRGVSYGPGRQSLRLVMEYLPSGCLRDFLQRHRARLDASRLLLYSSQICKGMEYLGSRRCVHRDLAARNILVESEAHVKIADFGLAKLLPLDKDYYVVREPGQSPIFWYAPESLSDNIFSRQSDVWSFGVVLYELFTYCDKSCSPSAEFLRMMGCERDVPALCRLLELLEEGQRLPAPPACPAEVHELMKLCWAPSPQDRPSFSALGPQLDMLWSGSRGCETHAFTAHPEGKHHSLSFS
In words: Inhibition of JAK3 (unknown origin).

In test [2] the target is T2, Tyrosine-protein kinase BTK (Homo sapiens, UniProt Q06187). In words: Binding affinity to BTK in human Ramos cells assessed as protein occupancy at 20 hrs post compound wash out. The class given is cell-based.
For test [3], the target named is T2, Tyrosine-protein kinase BTK. In words: Inhibition of BTK (unknown origin).
Test [4] addresses T3, Tyrosine-protein kinase Tec (Homo sapiens, UniProt P42680).
T3 sequence (P42680 whole entry): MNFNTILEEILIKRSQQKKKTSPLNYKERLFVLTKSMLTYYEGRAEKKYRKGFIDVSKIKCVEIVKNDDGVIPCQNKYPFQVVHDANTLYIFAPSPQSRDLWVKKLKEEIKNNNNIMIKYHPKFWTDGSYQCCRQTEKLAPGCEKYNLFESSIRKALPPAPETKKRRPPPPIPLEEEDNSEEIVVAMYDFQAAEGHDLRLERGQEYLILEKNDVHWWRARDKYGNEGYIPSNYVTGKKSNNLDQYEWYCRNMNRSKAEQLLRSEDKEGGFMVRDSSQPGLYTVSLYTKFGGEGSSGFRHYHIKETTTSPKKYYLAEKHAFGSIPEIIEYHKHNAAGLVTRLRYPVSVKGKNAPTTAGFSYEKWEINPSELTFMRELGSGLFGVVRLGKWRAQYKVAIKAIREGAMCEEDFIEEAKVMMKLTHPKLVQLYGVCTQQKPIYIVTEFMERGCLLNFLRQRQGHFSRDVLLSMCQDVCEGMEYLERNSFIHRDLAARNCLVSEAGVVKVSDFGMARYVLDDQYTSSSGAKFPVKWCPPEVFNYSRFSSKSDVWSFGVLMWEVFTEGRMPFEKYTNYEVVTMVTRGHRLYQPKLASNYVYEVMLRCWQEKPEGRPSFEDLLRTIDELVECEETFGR
In words: Inhibition of TEC (unknown origin).

In test [5] the target is Tyrosine-protein kinase Lyn (Homo sapiens, UniProt P07948). In words: Inhibition of LYN (unknown origin).
Test [6] addresses Receptor tyrosine-protein kinase erbB-4 (Homo sapiens, UniProt Q15303). The test can be described thus: Inhibition of ErbB4/HER4 (unknown origin).
For test [7], the species on record is Homo sapiens. In words: Selectivity for BTK (unknown origin) over ITK (unknown origin).
Test [8] is filed under the species Homo sapiens. The test can be described thus: Selectivity for BTK (unknown origin) over JAK3 (unknown origin).
The target of test [9] is Ribosomal protein S6 kinase alpha-3 (Homo sapiens, UniProt P51812). The test can be described thus: Binding affinity to RPS6KA3 (unknown origin).
The target of test [10] is T2, Tyrosine-protein kinase BTK. In words: Binding affinity to BTK (unknown origin) assessed as residence time.
The species named for test [11] is Homo sapiens. The test can be described thus: Selectivity for BTK (unknown origin) over EGFR (unknown origin).

T2 sequence (Q06187 whole entry): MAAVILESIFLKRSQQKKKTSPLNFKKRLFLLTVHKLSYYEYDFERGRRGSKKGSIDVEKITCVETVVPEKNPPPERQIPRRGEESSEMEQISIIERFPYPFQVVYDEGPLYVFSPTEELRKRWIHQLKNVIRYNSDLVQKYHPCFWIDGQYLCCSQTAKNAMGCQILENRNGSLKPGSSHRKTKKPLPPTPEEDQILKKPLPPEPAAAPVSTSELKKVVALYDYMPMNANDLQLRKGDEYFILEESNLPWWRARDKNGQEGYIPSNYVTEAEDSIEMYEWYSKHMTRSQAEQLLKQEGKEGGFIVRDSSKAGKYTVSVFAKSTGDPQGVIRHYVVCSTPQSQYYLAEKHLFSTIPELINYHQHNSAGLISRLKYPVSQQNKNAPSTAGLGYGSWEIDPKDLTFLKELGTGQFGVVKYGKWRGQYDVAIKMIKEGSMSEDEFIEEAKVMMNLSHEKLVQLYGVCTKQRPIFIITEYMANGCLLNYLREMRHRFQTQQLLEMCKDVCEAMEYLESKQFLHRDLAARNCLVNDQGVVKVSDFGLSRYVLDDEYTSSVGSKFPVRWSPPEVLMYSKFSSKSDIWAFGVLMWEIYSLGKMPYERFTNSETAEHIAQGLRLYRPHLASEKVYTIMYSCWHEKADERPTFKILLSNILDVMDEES
Chain of Receptor tyrosine-protein kinase erbB-4 (Q15303 whole entry): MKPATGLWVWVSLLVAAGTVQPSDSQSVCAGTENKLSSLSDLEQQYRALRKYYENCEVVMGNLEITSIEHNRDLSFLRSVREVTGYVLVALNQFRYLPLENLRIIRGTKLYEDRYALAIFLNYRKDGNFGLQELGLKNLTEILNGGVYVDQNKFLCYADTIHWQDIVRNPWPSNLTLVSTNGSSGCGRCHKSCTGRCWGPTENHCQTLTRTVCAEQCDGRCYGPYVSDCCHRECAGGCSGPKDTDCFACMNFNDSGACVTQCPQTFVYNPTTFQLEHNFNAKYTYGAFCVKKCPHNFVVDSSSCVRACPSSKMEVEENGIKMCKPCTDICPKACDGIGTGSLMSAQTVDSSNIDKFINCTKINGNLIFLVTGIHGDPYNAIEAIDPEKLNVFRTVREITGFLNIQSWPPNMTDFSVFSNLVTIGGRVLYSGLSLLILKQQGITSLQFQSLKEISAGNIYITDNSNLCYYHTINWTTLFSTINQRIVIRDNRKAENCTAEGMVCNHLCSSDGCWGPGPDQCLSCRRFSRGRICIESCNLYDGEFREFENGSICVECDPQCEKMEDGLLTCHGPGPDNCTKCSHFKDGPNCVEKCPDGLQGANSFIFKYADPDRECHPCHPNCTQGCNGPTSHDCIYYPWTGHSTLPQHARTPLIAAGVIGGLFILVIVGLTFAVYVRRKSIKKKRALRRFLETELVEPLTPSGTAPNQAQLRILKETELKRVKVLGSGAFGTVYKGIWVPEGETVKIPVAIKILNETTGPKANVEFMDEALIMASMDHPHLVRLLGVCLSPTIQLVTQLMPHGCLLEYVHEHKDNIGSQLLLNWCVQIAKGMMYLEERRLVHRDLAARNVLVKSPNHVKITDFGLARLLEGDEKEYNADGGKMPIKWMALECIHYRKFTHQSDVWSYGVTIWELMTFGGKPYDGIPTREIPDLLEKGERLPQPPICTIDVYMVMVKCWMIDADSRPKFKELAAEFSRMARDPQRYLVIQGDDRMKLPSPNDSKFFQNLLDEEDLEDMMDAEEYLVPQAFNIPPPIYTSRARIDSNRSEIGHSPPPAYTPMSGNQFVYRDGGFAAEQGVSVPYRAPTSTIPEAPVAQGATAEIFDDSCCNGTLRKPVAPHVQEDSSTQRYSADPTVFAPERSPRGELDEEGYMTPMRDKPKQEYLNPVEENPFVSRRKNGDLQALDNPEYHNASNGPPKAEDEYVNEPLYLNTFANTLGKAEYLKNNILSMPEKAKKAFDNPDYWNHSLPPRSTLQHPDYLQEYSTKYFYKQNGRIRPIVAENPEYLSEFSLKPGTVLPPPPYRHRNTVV
Chain of Ribosomal protein S6 kinase alpha-3 (P51812 whole entry): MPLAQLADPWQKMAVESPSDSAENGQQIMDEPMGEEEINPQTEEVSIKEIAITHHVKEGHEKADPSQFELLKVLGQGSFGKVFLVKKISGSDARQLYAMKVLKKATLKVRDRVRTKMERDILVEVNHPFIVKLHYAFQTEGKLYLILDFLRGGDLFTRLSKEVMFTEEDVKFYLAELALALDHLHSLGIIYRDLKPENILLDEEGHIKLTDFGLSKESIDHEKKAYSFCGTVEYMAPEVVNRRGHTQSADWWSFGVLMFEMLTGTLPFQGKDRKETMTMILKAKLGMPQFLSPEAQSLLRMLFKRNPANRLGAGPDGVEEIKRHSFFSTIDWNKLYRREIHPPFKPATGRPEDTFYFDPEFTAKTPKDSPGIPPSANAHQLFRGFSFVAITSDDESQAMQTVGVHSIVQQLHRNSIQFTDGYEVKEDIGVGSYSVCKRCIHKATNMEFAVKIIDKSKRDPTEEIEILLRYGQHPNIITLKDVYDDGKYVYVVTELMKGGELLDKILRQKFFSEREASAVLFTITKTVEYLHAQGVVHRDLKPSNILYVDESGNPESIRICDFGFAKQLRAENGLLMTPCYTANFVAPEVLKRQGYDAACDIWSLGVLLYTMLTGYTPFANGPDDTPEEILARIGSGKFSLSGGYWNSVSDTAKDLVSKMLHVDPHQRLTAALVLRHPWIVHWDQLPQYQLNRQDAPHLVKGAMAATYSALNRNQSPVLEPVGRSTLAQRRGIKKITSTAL
Chain of Tyrosine-protein kinase Lyn (P07948 whole entry): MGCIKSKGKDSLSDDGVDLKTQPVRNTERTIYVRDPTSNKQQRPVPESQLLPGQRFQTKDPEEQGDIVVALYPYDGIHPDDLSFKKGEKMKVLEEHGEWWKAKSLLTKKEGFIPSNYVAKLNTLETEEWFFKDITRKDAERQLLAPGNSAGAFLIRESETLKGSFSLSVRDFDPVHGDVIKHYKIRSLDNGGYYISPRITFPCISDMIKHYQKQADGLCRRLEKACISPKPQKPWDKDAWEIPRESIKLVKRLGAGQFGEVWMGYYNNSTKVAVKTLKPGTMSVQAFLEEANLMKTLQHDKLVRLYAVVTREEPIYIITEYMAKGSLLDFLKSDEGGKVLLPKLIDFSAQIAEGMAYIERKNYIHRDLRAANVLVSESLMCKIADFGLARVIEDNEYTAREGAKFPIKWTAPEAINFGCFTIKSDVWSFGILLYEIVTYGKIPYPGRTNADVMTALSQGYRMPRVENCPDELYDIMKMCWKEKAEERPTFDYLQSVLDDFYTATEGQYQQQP

As to `CC(C)(C)/C=C(/C#N)C(=O)N1CCC[C@@H](n2nc(-c3ccc(Oc4ccccc4)cc3)c3c(N)ncnc32)C1`, the IC50 was > 5000 nM in [1] and 4 nM in test [3]. Further, the Occ in [2] came to 55%.
As for `Cc1cc2[nH]ncc2cc1-c1cccc2c(N)c(C(N)=O)nnc12`, the IC50 in [3] amounted to 2 nM.
`C=CC(=O)Nc1cccc(Nc2nc(Nc3ccc(OCCOC)cc3)ncc2F)c1` [SPEBRUTINIB]: the figures for the half-maximal inhibitory concentration (IC50) in test [4] and in test [5] were 6.2 nM and 4400 nM, respectively.
In test [6], `CC(C)(/C=C(\C#N)C(=O)N1CCC[C@H](n2nc(-c3ccc(Oc4ccccc4)cc3F)c3c(N)ncnc32)C1)N1CCN(C2COC2)CC1` showed an IC50 of 11.3 nM.
Consider `CN(C1COC1)C(C)(C)/C=C(\C#N)C(=O)N1CCC[C@H]1Cn1nc(-c2ccc(Oc3ccccc3)cc2F)c2c(N)ncnc21`, for which the results for the Selectivity ratio in the test listed under Homo sapiens [7], in the test listed under Homo sapiens [8] and in the test listed under Homo sapiens [11] were 60, > 1000 and > 1000, respectively. The compound further gave a dissociation constant (Kd) in test [9] of 0.54 nM. For the same compound, the TIME in test [10] was determined as 161 h.
For the compound `C=CC(=O)Nc1cccc(Oc2nc(Nc3ccc(N4CCN(C)CC4)cc3)nc3ccoc23)c1` [POSELTINIB], the IC50 in test [3] turned out to be 652 nM.
